# Assay results as given in paper PMC9227781, “Inhibitors of O-Acetylserine Sulfhydrylase with a Cyclopropane-Carboxylic Acid Scaffold Are Effective Colistin Adjuvants in Gram Negative Bacteria” (Pharmaceuticals, 2022).
# Legend:
# StOASS-B = biological target: T1, StOASS-B (Salmonella typhimurium, UniProt P29848); assay: Fluorescence binding assay on purified recombinant StOASS-B
# T1 construct: His-tag (with TEV site) (cleaved yes); made in house; host or cells: E. coli Rosetta (DE3)
# T1 sequence (P29848 1-303): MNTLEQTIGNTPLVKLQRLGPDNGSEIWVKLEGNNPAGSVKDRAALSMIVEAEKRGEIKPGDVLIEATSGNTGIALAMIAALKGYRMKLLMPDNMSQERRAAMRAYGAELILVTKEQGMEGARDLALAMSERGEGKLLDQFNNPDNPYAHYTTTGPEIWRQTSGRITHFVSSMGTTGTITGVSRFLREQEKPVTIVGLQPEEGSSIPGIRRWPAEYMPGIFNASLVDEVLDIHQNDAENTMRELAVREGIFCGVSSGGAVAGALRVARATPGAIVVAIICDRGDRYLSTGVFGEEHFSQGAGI
# Description: The affinity of the compounds for StOASS-A and StOASS-B was determined on the purified recombinant proteins by an in vitro fluorescence binding assay. Measurements were carried out at 20 °C in a 3 mm pathlength quartz microcuvette in 100 mM HEPES, 5% DMSO (Applichem, Darmstadt, Germany), pH 7.0, using a Fluoromax-4 (Horiba Jobin-Yvon, Kyoto, Japan) spectrofluorometer. Emission spectra of solutions containing 0.2–1.0 μM StOASS, upon excitation of the pyridoxal 5′-phosphate cofactor at 412 nm, in the presence of increasing concentrations of compounds were collected; fluorescence intensities at 500 nm were plotted to compound concentration and data were fitted to a binding isotherm: I=I0+ΔI·compound/KD+compound where I is the fluorescence emission intensity at 500 nm in the presence of a given concentration of compound, I0 is the initial fluorescence emission in the absence of ligands, ΔI is the amplitude of the fluorescence emission change and KD is the dissociation constant. When the KD was lower than the protein concentration, data were fitted to the quadratic equation: I=I0+ΔI·OASS+compound+KD−OASS+compound+KD^2−4·OASS·compound/2
# Data were collected in duplicate.
# Esters were tested up to a concentration of 100 μM and no binding was observed.
# S. Typhimurium ATCC14028 = assay: MIC by broth microdilution, S. Typhimurium; type: cell-based, Salmonella enterica serovar Typhimurium; settings: Salmonella enterica; compound alone, MHB, 24 h at 37 °C; read-out: MIC (μg/mL) S. Typhimurium ATCC14028
# Description: MIC values were evaluated following CLSI guidelines with some modifications, as referred to in previous work. Twofold dilutions 25.6–0.05 mg/mL of the tested compounds were performed in DMSO in separate 96-well microtiter U-plates (Greiner, Milan, Italy). In a different 96-well microtiter U-plate, for each well of the replicates, 49 µL of broth medium were added. Then, in each well of the plate, one microliter of each compound at variable dilution in DMSO was added. For each test, three independent experiments with three replicates each were performed. Tested reference bacterial strains (E. coli ATCC25922; S. Typhimurium ATCC14028; K. pneumoniae ATCC13883) were brought to the logarithmic phase of growth in MHB medium by incubation at 37 °C for 24 h. After incubation, bacterial suspensions were centrifuged (2000 rpm, 4 °C for 20 min), and then the pellets were resuspended in 100 mM phosphate buffer, pH 7.0, to reach a final bacterial concentration of 10^8 CFU/mL, adjusted by spectrophotometry (OD620nm ranged between 0.08–0.13). The obtained suspensions were further diluted 1:100 in broth medium to reach a bacterial concentration of 10^6 CFU/mL. Fifty µL of the bacterial suspension containing 10^6 CFU/mL were inoculated into each well within 30 min, to obtain a final concentration of 5 × 10^5 CFU/mL in a total volume of 100 µL. The final dilution range tested was 256–0.5 µg/mL. Growth and sterility controls were performed for each strain and for each tested compound. Plates were then incubated for 24 h at 37 °C in a static aerobic atmosphere. After incubation, plates were read by unaided eye with a microtiter reading mirror and then the OD of each well of the plates was measured spectrophotometrically at 620 nm. MIC values were calculated as the arithmetic mean ± standard deviation (SD) of the unaided eye reading and the inhibition of growth for each tested dilution was calculated from the OD values (mean ± SD). A quality control microorganism (E. coli ATCC 25922) was tested periodically to validate the accuracy of the procedure.
# K. pneumoniae ATCC13883 = assay: Checkerboard assay with colistin, K. pneumoniae; type: cell-based, Klebsiella pneumoniae; settings: for reduction of the MIC of colistin, K. pneumoniae: association of colistin with compound; for MIC Colistin K. pneumoniae: colistin in combination with compound at 8 μg/mL
# Description: Antimicrobial activity of associations between the different compounds and colistin (Sigma-Aldrich, St. Louis, MO, USA, lot n. 049M-4836 V) was tested with checkerboard assay with minor modifications, as mentioned in the previous work. For each assay, three experiments with three replicates each were assessed. For each compound tested concentration, 96-wells microtiter U-plates were prepared with twofold serial dilutions of colistin in MHB starting from the MIC value (µg/mL) for ten consecutive dilutions in 50 µL of broth. In each well of the same replicate, 1 µL of each compound in DMSO was added at a fixed concentration, 100 times higher than the final desired concentration (3.2; 1.6; 0.8 mg/mL). Subsequently, 49 µL of the bacterial suspension at a concentration of 10^6 CFU/mL, adjusted spectrophotometrically as reported above, was added to each well, reaching the final bacterial concentration of 5 × 10^5 CFU/mL. Growth and sterility controls were performed for each experiment and for each replicate. Finally, the plates were incubated at 37 °C in aerobic atmosphere for 24 h. After incubation, plates were read by unaided eye with a microtiter reading mirror and then the OD of each well of the plates was measured spectrophotometrically at 620 nm. MIC values were calculated as the arithmetic mean ± SD of the unaided eye reading and the inhibition of growth for each tested dilution was calculated from the OD values (mean ± SD).
# To evaluate the antimicrobial effect of the two molecules in association, the FIC index was calculated as follows. The MICs of each of the two molecules tested individually and in combination with each other were evaluated and the results have been included in the following formula as reported by Meletiadis et al.: FIC=MICA in combination/MICA+MICB in combination/MICB where MICA was the MIC of the compound UPAR415 and MICA in combination was the MIC of UPAR415 in combination with colistin. MICB was the MIC of colistin and MICB in combination was the MIC of colistin in combination with UPAR415. From the results of the FIC index formula, the antimicrobial activity in combination of the two molecules can be considered: synergistic, additive, indifferent of antagonistic. If the FIC index is ≤ 0.5, the association is synergic; additive if FIC is between 0.5 and 1; indifferent if FIC is between 1 and 4; and antagonistic if FIC is ≥4 [50].
# Statistical analysis of checkerboard results in comparison with MIC values of colistin alone was performed using the Analysis of Variance (ANOVA) test.
# [1] = compound at 8 μg/mL with colistin
Compound,Kd (StOASS-B) [µM],MIC (S. Typhimurium ATCC14028) [µg/mL],"reduction of the MIC of colistin, K. pneumoniae (K. pneumoniae ATCC13883)",MIC Colistin K. pneumoniae (K. pneumoniae ATCC13883) [µg/mL],FIC Index K. pneumoniae (K. pneumoniae ATCC13883; [1]),"effect on MIC of colistin, K. pneumoniae (K. pneumoniae ATCC13883; compound at 32 and 16 µg/mL)","KD (μM) OASS-B (StOASS-B; 20 °C, 100 mM HEPES, 5% DMSO, pH 7.0, racemic mixture, esters tested up to 100 μM)",FIC Index interpretation K. pneumoniae (K. pneumoniae ATCC13883; [1])
"Cc1ccc(CC2(C(=O)O)CC2c2cccc(N3CC(C)OC(C)C3)c2)cc1 (stereo not drawn) [Compound 13h, trans-2-(3-(2,6-dimethylmorpholino)phenyl)-1-(4-methylbenzyl)cyclopropanecarboxylic acid]",3.37 ± 0.72,> 512,has not led to a reduction of the MIC of colistin,3.33 ± 1.0,0.85,only a slight effect,,
"CCOC(=O)C1(Cc2ccc(C)cc2)CC1c1cccc(N2CC(C)OC(C)C2)c1 (stereo not drawn) [Compound 12h, trans-ethyl 2-(3-(2,6-dimethylmorpholino)phenyl)-1-(4-methylbenzyl)cyclopropanecarboxylate]",,> 512,has not led to a reduction of the MIC of colistin,8.00 ± 0.0,2.01,,No binding,indifference (indifferent if FIC is between 1 and 4)
